Test results as given in patent publication US20100239501A1, “GENE SENSITIVE TO BONE/JOINT DISEASE AND USE THEREOF” (RIKEN, priority 2007, published 2010).

Assays:
[1] = tested on: transcriptional factor AP-1; test: AP-1 cis-reporter luciferase assay in PMA-stimulated E11 cells; assay type: cell-based, human; conditions: 0.1, 1 and 10 ng/ml PMA, 24 hours after stimulation, n=2
Source text: Because the EDG2 gene is an LPA receptor that is dominant in OA synovial membrane, it was decided to perform a functional analysis of OA susceptibility polymorphs using synovial cells. E11 cells are a cell line established by immortalizing fibroblast-like cells from a rheumatoid arthritis patient synovial membrane with simian SV40 large T antigen (Abe et al, J Rheumatol. 1997 March; 24(3):420-9.). In the 5′-flanking region of EDG2, where i-EDG2-09 and 12 are present, an AP-1-binding motif is present. […] The method used is described below. The E11 cells were cultured using Dulbecco's Modified Eagle's Medium (DMEM, Sigma) containing 10% fetal bovine serum (FBS), antibiotics (100 U/ml penicillin G and 100 μg/ml streptomycin) and L-glutamine ([…]). On the day before the transfection, the E11 cells were seeded to a 24-multiwell plate to obtain a cell density of 5×10^4 cells/well. The following day, using Fugene-6 (Roche diagnostics), 200 ng of the reporter construct and 4 ng of pRL-TK (Promega) as the internal standard for correction of transfection efficiency, per well were transfected. Twenty-four after the transfection, the cells were cultured on a medium containing 0.1, 1 and 10 ng/ml PMA. Twenty-four hours after the stimulation, the cells were solubilized, and luciferase activity was measured using PicaGene Dual SeaPansy System (Toyo Ink). The number of cases was n=2.

[2] = tested on: synovial cell line E11 cells; test: EDG2 gene expression in PMA-stimulated E11 cells (quantitative real-time PCR); assay type: cell-based, human; conditions: PMA 10 ng/ml, from 2 hours to 12 hours after addition, n=4
Method: To analyze the expression of the four LPA receptors examined in Example 10 in joint tissue, an expression quantitation analysis by quantitative real-time PCR was performed on articular cartilages and synovial tissues of knee OA patients. The method used was in accordance with Example 10. Total RNA was extracted from each tissue (articular cartilage n=4, synovial membrane n=3) using Isogen (Nippon Gene), and reverse transcription was performed on 500 ng of total RNA using Multiscribe reverse transcriptase (Applied biosystems) and a random hexamer, whereby a cDNA was obtained. Quantitation of the LPA receptor genes was performed using QuantiTect STBR Green PCR (Qiagen) on the ABI PRISM 7700 sequence detection system (Applied biosystems) as directed in the documentation attached. The number of copies of each gene was calculated using a working curve. The amount of each gene was standardized by being divided by the number of copies of the G3PDH gene. A Toyobo product was used as the primer for the G3PDH gene. […] The amount of the EDG2 gene expressed was higher in synovial membrane at a level about 10 times as high as in articular cartilage. […]
The method used is described below. […] In these total RNAs, the amount expressed of the EDG2 gene relative to G3PDH was measured in accordance with the method described in Example 11. […]

[3] = tested on: EDG2 gene transcription activity (i-EDG2-09 region); test: i-EDG2-09 luciferase reporter assay in PMA-stimulated E11 cells; assay type: cell-based, human; conditions: both constructs (G allele and A allele), 10 ng/ml PMA, 5 hours after stimulation
Source text: An AP-1-binding motif described in a report by Duncliffe et al. [Immunity. […] 28; 276(52):48871-8.] is present 11 to 16 by upstream. The existence of a transcriptional factor-binding motif where AP-1 and NFAT are located in tandem is known in a plurality of genes [Macian F, Lopez-Rodriguez C and Rao A., Oncogene. 2001 Apr. 30; 20(19):2476-89. Review.]. Meanwhile, in the surrounding sequence, including i-EDG2-12, no distinct transcriptional factor binding sequence was found. […] Oligonucleotides (sense strand and antisense strand) wherein 4 bp at the restriction endonuclease NheI adhesion end is added on the 5′ side of a region centering at i-EDG2-09, and comprising the AP-1 and NFAT-binding motifs (a region at −2809 to −2839 from the transcription initiation point of EDG2), and 4 bp at the XbaI adhesion end is added on the 3′ side, were prepared for both alleles of i-EDG2-09 (G or A). After these oligonucleotides were converted to double-stranded DNAs for each allele, reporter constructs wherein each allele was integrated in tandem 5 times in the NheI site of the pGL3-promoter vector (Promega), which is a luciferase reporter vector, while retaining the orientation were prepared for G allele and A allele. […] Five hours after the stimulation, the cells were solubilized, and luciferase activity was measured using the PicaGene Dual SeaPansy System (Toyo Ink). […]

EDG7 = target: T1, EDG7 (Homo sapiens, UniProt Q9UBY5); conditions: no test described; cited from earlier work
T1 sequence (Q9UBY5 1-353): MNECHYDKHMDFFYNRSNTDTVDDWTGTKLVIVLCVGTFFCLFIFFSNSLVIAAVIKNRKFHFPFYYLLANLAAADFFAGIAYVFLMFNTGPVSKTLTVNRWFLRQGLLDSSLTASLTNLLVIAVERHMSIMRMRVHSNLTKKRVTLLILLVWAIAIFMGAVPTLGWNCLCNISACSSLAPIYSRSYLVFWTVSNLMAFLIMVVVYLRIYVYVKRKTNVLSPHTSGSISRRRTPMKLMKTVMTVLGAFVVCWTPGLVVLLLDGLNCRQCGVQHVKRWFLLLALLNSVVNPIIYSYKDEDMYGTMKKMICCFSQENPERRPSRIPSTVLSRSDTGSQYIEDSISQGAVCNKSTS

EDG2 [4] = target: T2, EDG2 (Homo sapiens, UniProt Q92633); test: Intracellular Ca2+ concentration (FLIPR tetra) in McA-RH7777 cells stably expressing EDG2; assay type: cell-based; design: Dainippon Pharmaceutical Co., Ltd. (cells); host or cells: McA-RH7777; conditions: LPA 0.3 μM, Ki16425 10^−8 to 10^−5 M added previously
T2 sequence (Q92633 whole entry): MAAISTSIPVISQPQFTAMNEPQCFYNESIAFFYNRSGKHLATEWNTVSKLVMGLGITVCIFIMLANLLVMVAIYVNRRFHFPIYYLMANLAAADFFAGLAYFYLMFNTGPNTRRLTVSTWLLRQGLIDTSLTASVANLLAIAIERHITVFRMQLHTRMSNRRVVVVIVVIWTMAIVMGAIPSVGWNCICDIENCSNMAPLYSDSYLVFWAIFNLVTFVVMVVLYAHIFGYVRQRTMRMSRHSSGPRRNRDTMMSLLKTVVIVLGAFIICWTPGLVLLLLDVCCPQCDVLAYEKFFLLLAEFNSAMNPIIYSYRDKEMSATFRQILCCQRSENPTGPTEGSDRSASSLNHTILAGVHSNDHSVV
Method: A forcible expression vector comprising an ORF sequence of human EDG2 [hEDG2-pcDNA3.1(+)] was purchased from UMR cDNA Resource Center. This plasmid was introduced into McA-RH7777 (Dainippon Pharmaceutical Co., Ltd.) using Lipofectamine LTX (Invitrogen), and the cells were cultured in a medium containing Geneticin for 14 to 20 days to acquire cells that stably express EDG2.
Next, an evaluation was made using FLIPR tetra (Molecular Devices) to confirm that stimulation with LPA raised intracellular Ca concentrations via the EDG2 expressed. That is, these cells were seeded to a 384-well plate, 0.03 to 10 μM LPA (Sigma) was added to each well, and it was confirmed that rises in intracellular Ca^2+ concentration occurred. LPA dose-dependently.

EDG2 [5] = target: T2, EDG2; test: IL6 gene expression in LPA-stimulated HFLS-OA treated with EDG2 antagonist; assay type: cell-based; design: OA patient-derived fibroblast-like synovial cells (HFLS-OA) were purchased from Cell application Co; host or cells: HFLS-OA (OA patient-derived fibroblast-like synovial cells); conditions: Ki16425 0, 0.3, 1, 3, 10 and 33 μM for 30 minutes, then 10 μM LPA, 2 hours, n=4
Method: Furthermore, the involvement of EDG2 in the LPA-induced inflammatory cytokine raising reaction in human OA synovial cells was analyzed using an antagonist against EDG2. […] As the EDG2 antagonist, Ki16425 (Sigma) was used. OA patient-derived fibroblast-like synovial cells (HFLS-OA) were purchased from Cell application Co. The HFLS-OA was cultured using the attached Synoviocyte growth medium. The number of passages for the cells used was 4 or 5. The HFLS-OA was seeded to a 24-well plate at a ratio of 1×10^5 cells/well, and cultured using the attached Synoviocyte growth medium until they became confluent. Twelve hours before performing LPA stimulation, the medium was replaced with Ham's F-12 (Invitrogen) medium containing 0.1% fatty acid free bovine serum albumin (Sigma). Twelve hours after the medium replacement, the cells were treated with Ki16425 (0, 0.3, 1, 3, 10 and 33 μM) for 30 minutes. Thereafter, the cells were stimulated with 10 μM LPA; 2 hours later, total RNA was extracted using ISOGEN (Nippon Gene), and the amount expressed of the IL6 gene was quantified by a method in accordance with Example 10 (n=4).

EDG2 [6] = test: EDG2 knockdown by siRNA in LPA-stimulated HFLS-OA; assay type: cell-based, human; conditions: n=4
Method: To analyze the involvement of EDG2 in the LPA-induced inflammatory cytokine raising reaction in human OA synovial cells, obtained in Example 17, an investigation using an siRNA was performed. The method used is described below. An siRNA against EDG2 was designed by utilizing an siRNA design support system available from the Takara Bio Web site (http://bio.takara.co.jp). Synthesis of the siRNA was outsourced to Takara Bio. The control siRNA used was such that the sequence of an siRNA against asporin was scrambled. OA patient-derived fibroblast-like synovial cells (HFLS-OA) were purchased from Cell application Co. The HFLS-OA was cultured using the attached Synoviocyte growth medium. The number of passages for the cells used was 4 or 5. The HFLS-OA was seeded to a 24-well plate at a ratio of 1×10^5 cells/well, and cultured using the attached Synoviocyte growth medium. The following day, the siRNA against EDG2 was introduced into the HFLS-OA to obtain a final concentration of 11 nM, using the Trans-IT-TKO transfection regent (Mirus Co.), according to the attached protocol. […] Twelve hours after the medium replacement, the cells were stimulated with 10 μM LPA; 2 hours later, total RNA was extracted using ISOGEN (Nippon Gene), and the amount of the IL6 gene expressed was quantified by a method in accordance with Example 10 (n=4).

CCCCCCCCCCCCCC(=O)O[C@@H]1[C@@H](C)[C@@]2(O)[C@@H](C=C(CO)C[C@]3(O)C(=O)C(C)=C[C@@H]23)[C@@H]2C(C)(C)[C@]12OC(C)=O [PMA, phorbol 12-myristate 13-acetate]
luciferase activity (AP-1 binding motif reporter) [1]: rose PMA dose-dependently
amount expressed of the EDG2 gene relative to G3PDH [2]: rose over time
luciferase activity of i-EDG2-09 reporter constructs [3]: rose significantly

Cc1noc(-c2ccc(CSCCC(=O)O)cc2)c1NC(=O)OC(C)c1ccccc1Cl (centres unmarked) [Ki16425]
antagonist activity against EDG7 (EDG7): antagonist activity
suppression of elevation of intracellular Ca2+ concentration by LPA stimulation (EDG2 [4]): suppressed dose-dependently
suppression of the rise in the expression of the IL6 gene by LPA (EDG2 [5]): dose-dependently

siRNA against EDG2: siRNA used in EDG2 knockdown; sense GAAAUGAGCGCCACCUUUATT (SEQ ID NO 40), antisense UAAAGGUGGCGCUCAUUUCTT (SEQ ID NO 41) (chemistry not given here)
amount expressed of the IL6 gene, which rises in response to LPA (EDG2 [6]; siRNA 11 nM, 10 μM LPA, 2 hours): significantly suppressed
amount of EDG2 expressed (EDG2 [6]; siRNA final concentration 11 nM): significantly suppressed
